The values that follow come from publication PMC5713674, “Meditope–Fab interaction: threading the hole” (Acta Crystallographica. Section F, Structural Biology …, 2017).

pKd: −log10 of the molar value. Where two headings read alike, the source gives them in different places.

The target in test [1] is cetuximab. The test can be described thus: Surface plasmon resonance (Biacore T100) binding kinetics of meditope variants to immobilised cetuximab IgG. The following applies: SPR, 25°C, at pH 5.5. A general note: SPR reads the build-up and loss of mass on a sensor chip optically.
Test [2] concerns cetuximab. The description is as above. The following applies: 25°C; for k a / k d: pH 7.4, HBS-EP+. The method, then: All surface plasmon resonance (SPR) experiments were performed on a GE Biacore T100 instrument (GE Healthcare) at 25°C as described previously (Bzymek, Avery et al., 2016[▸]; Bzymek, Ma et al., 2016[▸]). Briefly, cetuximab IgG ligand was amine-coupled to CM5 chips using acetate buffer pH 5.5 at a density of 5000 RU. Analytes were prepared in GE buffer HBS-EP+ [10 mM HEPES pH 7.4, 150 mM NaCl, 3 mM EDTA, 0.05%(v/v) surfactant P20]. Kinetics experiments were carried out at a flow rate of 30 µl min^−1 using HBS-EP+ as both the running and regeneration buffer. Experimental data were processed using Biacore T100 Evaluation software v.2.0.1. Purified peptides were dissolved in water and extensively dialyzed to remove any residual TFA, and their concentration was determined as described previously (Bzymek, Ma et al., 2016[▸]).

Test [3] concerns cetuximab. The arrangement: method as in Bzymek, Ma et al. (2016). The following applies: SPR, 25°C, pH 7.4; ref Bzymek, Ma et al. (2016); cited from earlier work.

As a reminder, the pKd is the negative decadic logarithm of the Kd, by convention in mol/L.

In the case of `CC(C)C[C@@H]1NC(=O)[C@H](CCCNC(=N)N)NC(=O)[C@H](CCCNC(=N)NCCC(=O)O)NC(=O)[C@H]([C@@H](C)O)NC(=O)[C@H](CO)NC(=O)[C@H](CC(C)C)NC(=O)[C@H](CC(=O)O)NC(=O)[C@H](Cc2ccccc2)NC(=O)[C@H](CCC(N)=O)NC(=O)CCCCCCNC(=O)[C@H](CCCCN)NC1=O` [(AHA)QFDLSTR(EtCOOH)RLK, aminoheptanoic acid-linked N-carboxyethylarginine meditope variant], at cetuximab [1], the pKd was 4.49, the k a was determined as 0.06 M^−1 s^−1 × 10^4 and the k d worked out at 0.020 s⁻¹.
As for `CC(C)C[C@@H]1NC(=O)[C@H](CCCNC(=N)N)NC(=O)[C@H](CCCNC(=N)NCCCN)NC(=O)[C@H]([C@@H](C)O)NC(=O)[C@H](CO)NC(=O)[C@H](CC(C)C)NC(=O)[C@H](CC(=O)O)NC(=O)[C@H](Cc2ccccc2)NC(=O)[C@H](CCC(N)=O)NC(=O)CCCCCCNC(=O)[C@H](CCCCN)NC1=O` [(AHA)QFDLSTR(PrNH2)RLK, aminoheptanoic acid-linked N-(3-aminopropyl)-L-arginine meditope variant], in the test on cetuximab [2] (SPR), the k a came out at 1.2 M^−1 s^−1 × 10^4 and the k d was 0.110 s⁻¹.
As to `CC(C)C[C@@H]1NC(=O)[C@H](CCCNC(=N)N)NC(=O)[C@H](CCCNC(=N)NCCCO)NC(=O)[C@H]([C@@H](C)O)NC(=O)[C@H](CO)NC(=O)[C@H](CC(C)C)NC(=O)[C@H](CC(=O)O)NC(=O)[C@H](Cc2ccccc2)NC(=O)[C@H](CCC(N)=O)NC(=O)CCCCCCNC(=O)[C@H](CCCCN)NC1=O` [(AHA)QFDLSTR(PrOH)RLK, aminoheptanoic acid-linked N-(3-hydroxypropyl)-L-arginine meditope variant], in the test with cetuximab [2] (SPR), the k a stood at 1.2 M^−1 s^−1 × 10^4 and the k d was 0.027 s⁻¹. The “increase in the half-life of the complex over the nonmodified AHA-cyclized meditope” value in the test with cetuximab [2] (t = ln(2)/k d, HBS-EP+ pH 7.4) is on record as 1.7 fold.
In the test with cetuximab [2] (SPR), `CCCCNC(=N)NCCC[C@@H]1NC(=O)[C@H]([C@@H](C)O)NC(=O)[C@H](CO)NC(=O)[C@H](CC(C)C)NC(=O)[C@H](CC(=O)O)NC(=O)[C@H](Cc2ccccc2)NC(=O)[C@H](CCC(N)=O)NC(=O)CCCCCCNC(=O)[C@H](CCCCN)NC(=O)[C@H](CC(C)C)NC(=O)[C@H](CCCNC(=N)N)NC1=O` [(AHA)QFDLSTR(nBu)RLK, aminoheptanoic acid-linked n-butylarginine meditope variant] displayed a k a of 2.2 M^−1 s^−1 × 10^4 and a k d of 0.060 s⁻¹. In addition, the “change of half-life of the complex versus nonmodified AHA-cyclized meditope (in words)” value in the test on cetuximab [2] (t = ln(2)/k d, HBS-EP+ pH 7.4) was “slightly reduced”.
In the test with cetuximab [2] (SPR), `CCCCCCCCNC(=N)NCCC[C@@H]1NC(=O)[C@H]([C@@H](C)O)NC(=O)[C@H](CO)NC(=O)[C@H](CC(C)C)NC(=O)[C@H](CC(=O)O)NC(=O)[C@H](Cc2ccccc2)NC(=O)[C@H](CCC(N)=O)NC(=O)CCCCCCNC(=O)[C@H](CCCCN)NC(=O)[C@H](CC(C)C)NC(=O)[C@H](CCCNC(=N)N)NC1=O` [(AHA)QFDLSTR(nOc)RLK, aminoheptanoic acid-linked n-octylarginine meditope variant] had a k a of 0.93 M^−1 s^−1 × 10^4 and a k d of 0.079 s⁻¹. Besides, in the test on cetuximab [2] (t = ln(2)/k d, HBS-EP+ pH 7.4), the “change of half-life of the complex versus nonmodified AHA-cyclized meditope (in words)” value is recorded as “slightly reduced”.
In the test with cetuximab [1], `CC(C)C[C@@H]1NC(=O)[C@H](CCCNC(=N)N)NC(=O)[C@H](CCCNC(=N)N)NC(=O)[C@H]([C@@H](C)O)NC(=O)[C@H](CO)NC(=O)[C@H](CC(C)C)NC(=O)[C@H](CC(=O)O)NC(=O)[C@H](Cc2ccccc2)NC(=O)[C@H](CCC(N)=O)NC(=O)CCCCCCNC(=O)[C@H](CCCCN)NC1=O` [reference compound] gave a k a of 2.0 M^−1 s^−1 × 10^4 and a k d of 0.075 s⁻¹. Moreover, the “k a (on-rate)” value with cetuximab [2] (SPR, pH 7.4) was 25000 M⁻¹ s⁻¹. In the test with cetuximab [2] (SPR), the k a turned out to be 2.5 M^−1 s^−1 × 10^4 and the k d turned out to be 0.046 s⁻¹.
For the compound CQFDLSTRRLKC, the k a with cetuximab [3] is 8.8 M^−1 s^−1 × 10^4.
